The source of these data is EP4782453A1 (Beyang Therapeutics Co., Ltd., priority 2023, dated 2025).

Structures are written as SMILES. Like-named read-outs stand apart in the source and are kept apart here.

One assay has as its target T1, Menin-MLL (Homo sapiens, UniProt O00255).
T1 construct: His-Menin (M1-L615 end); purchased BIORTUS BP9210
T1 sequence (O00255 1-615 isoform O00255-1): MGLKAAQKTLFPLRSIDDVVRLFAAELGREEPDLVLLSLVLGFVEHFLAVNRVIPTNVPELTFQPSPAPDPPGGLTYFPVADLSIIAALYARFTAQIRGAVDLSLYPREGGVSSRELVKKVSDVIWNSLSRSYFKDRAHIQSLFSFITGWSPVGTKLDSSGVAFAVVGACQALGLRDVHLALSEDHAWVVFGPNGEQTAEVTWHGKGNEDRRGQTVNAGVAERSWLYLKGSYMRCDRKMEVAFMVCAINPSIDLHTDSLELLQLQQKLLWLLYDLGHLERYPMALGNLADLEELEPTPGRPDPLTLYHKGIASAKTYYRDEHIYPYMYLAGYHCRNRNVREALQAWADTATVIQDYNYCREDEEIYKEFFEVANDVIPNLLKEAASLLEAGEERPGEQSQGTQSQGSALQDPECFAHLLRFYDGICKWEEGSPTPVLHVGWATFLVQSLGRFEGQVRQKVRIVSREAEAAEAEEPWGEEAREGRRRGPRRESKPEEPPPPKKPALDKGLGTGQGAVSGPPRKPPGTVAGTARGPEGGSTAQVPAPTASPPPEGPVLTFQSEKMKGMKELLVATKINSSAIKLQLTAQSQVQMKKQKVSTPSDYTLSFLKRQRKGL
Description: Inhibitory activity against Menin-MLL binding (fluorescence polarization). The following applies: 150 nM His-Menin, 15 nM FITC-MLL, 25°C for 60 min. The method, boiled down:
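Fluorescence polarization competition: compound and 150 nM His-tagged menin (residues M1-L615) sit 15 min at 25 °C in pH 7.5 HEPES buffer with NaCl, DTT and BSA; 15 nM FITC-labelled MLL peptide then binds for 60 min. IC50 fitted sigmoidally from mP values, duplicate wells.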

The subject of assay [1] is MEIS1 gene expression. Description: Inhibition of MEIS1 gene expression in human tumor cells (qRT-PCR), MV-4-11. Type of assay: cell-based. The following applies: MV4-11, MV-4-11 (carrying MLL-AF4), 48 hours of incubation, relative MEIS1 gene expression vs GAPDH, read-out: MV-4-11 MEISI EC50. The source says: (§1) Experimental Example 3: Evaluation of Inhibitory Activity of Compounds Against MEISI Gene Expression in Human Tumor Cells
(§2) The effect of test samples on MEIS1 gene expression in vitro cultured human leukemia cells MV-4-11 (carrying MLL-AF4), MOLM-13 (carrying MLL-AF9), and OCI-AML3 (carrying NPM1c) was studied.
(§3) • Human acute lymphoblastic leukemia cells MV-4-11, purchased from American Type Culture Collection, Catalog Number: CRL-9591; • Human acute myeloid leukemia cells MOLM-13, purchased from COBIOER BIOSCIENCES CO., LTD, Catalog Number: CBP60678; • Human acute myeloid leukemia cells OCI-AML3, purchased from COBIOER BIOSCIENCES CO., LTD, Catalog Number: CBP60817; • MEIS1 Primer/Probe, purchased from IDT, Catalog Number: 40831613; and • GAPDH Primer/Probe, purchased from IDT, Catalog Number: 22214836.
(§4) MV-4-11 cells were cultured in an IMDM medium containing 10% fetal bovine serum, or MOLM-13 and OCI-AML3 cells were cultured in an RPMI-1640 medium containing 20% fetal bovine serum, each supplemented with 100 U·mL^-1 penicillin and 100 µg·mL^-1 streptomycin. These cells were cultured at 37°C with 5% CO2. The suspensions of individual cell lines were prepared in their respective media and seeded into 48-well plates at a density of 100,000 cells/well. On the day of the experiment, a compound stock solution was diluted in a 6-fold gradient using DMSO. Each gradient-diluted stock solution was then further diluted 250-fold with a complete medium to prepare a series of working solutions at different concentrations. Next, 250 µL of working solution (containing the complete medium with a 2-fold serial concentration of the test compound or a positive control compound, or containing a control complete medium) was added to each well. After 48 hours of incubation, cells from the 48-well plate were collected into 1 mL centrifuge tubes, centrifuged at 1000 rpm for 5 minutes, and the complete medium was removed. Cells were washed twice with 1 mL PBS and centrifuged to remove PBS. Total RNA was extracted using the RNeasy Mini Kit (250) (QIAGEN, 74106). The threshold cycle (Ct) value for gene expression was determined using the HiScript II U+ One Step qRT-PCR Probe Kit (Vazyme) (Vazyme, Q223-01), with 3 replicates per sample. The prepared reaction mixture was placed in an ABI 7500 real-time PCR instrument, and the reaction proceeded following the procedures below. [formula]
(§5) Next, for the relative MEIS1 gene expression, the concentration (EC50) that inhibits 50% of relative MEIS1 gene expression was calculated using GraphPad Prism 8 software.
Background: Quantitative PCR measures a nucleic acid by following its amplification.

Assay [2] has as its system MEIS1 gene expression. The experiment in a line: Inhibition of MEIS1 gene expression in human tumor cells (qRT-PCR), MOLM-13. Type of assay: cell-based. The following applies: MOLM-13 (carrying MLL-AF9), 48 hours of incubation, relative MEIS1 gene expression vs GAPDH.
Description: as §1, §2, §3, §4, §5

Assay [3] has as its system MOLM-13 (carrying MLL-AF9). The experiment in a line: Inhibition of proliferation of human tumor cells (Alamar Blue, 7 days), MOLM-13. Type of assay: cell-based. The following applies: Homo sapiens, 168 h, MOLM-13 cells (carrying MLL-AF9), method calls the value GI50. In a few lines:
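GI50 from Alamar Blue fluorescence after 7-day compound exposure, duplicate wells, using Day-0 and Day-7 0.1% DMSO wells as low and high controls. MV-4-11 in IMDM/10% FBS and MOLM-13 in RPMI-1640/20% FBS at 4,000 cells/well; KG-1a in IMDM/20% FBS at 3,000 cells/well.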

[4] abbreviates: fluorescence polarization, read-out: Menin-MLL IC50.

`Cc1ncc2c(-c3ccc(F)cc3C(=O)N3CCOC[C@H]3C)cc(C3CN([C@H](CCCN4CCN(C5CC5)CC4)C(C)C)C3)cn12` [Example 325] returned an IC50 on Menin-MLL (Menin-MLL IC50, fluorescence polarization) of 3.2 nM. Besides, the EC50 in the assay with MEIS1 gene expression [1] turned out to be 7.6 nM; with MEIS1 gene expression [2], 4.2 nM.

`CCN(C(=O)c1cc(F)ccc1-c1cc(C2CN([C@H](CCCN3CCC[C@@H](O)C3)C(C)C)C2)cn2c(C)ncc12)C(C)C` [Example 326]: on Menin-MLL (setting [4]), the concentration for half-maximal inhibition (IC50) turned out to be 2 nM. Also, the values for the concentration for a half-maximal effect (EC50) with MEIS1 gene expression [1] and in the assay with MEIS1 gene expression [2] were 4.6 nM and 5.5 nM, respectively.

For `CC(=O)N1CCN(CCC[C@H](C(C)C)N2CC(c3cc(-c4ccc(F)cc4C(=O)N4CCOC[C@H]4C)c4c(F)nc(C)n4c3)C2)[C@@H](C)C1` [Example 329], at Menin-MLL (setting [4]), the IC50 is 11 nM. The EC50 in the assay on MEIS1 gene expression [1] stood at 63 nM; in the assay with MEIS1 gene expression [2] it was 17.9 nM.

In the case of `CC(=O)N1CCN(CCC[C@H](C(C)C)N2CC(c3cc(-c4ccc(F)cc4C(=O)N4CCOC[C@H]4C)c4c(F)nc(C)n4c3)C2)C[C@@H]1C` [Example 331], the IC50 on Menin-MLL (setting [4]) is 14 nM. The EC50 with MEIS1 gene expression [1] came out at 63 nM; with MEIS1 gene expression [2], 20.3 nM.

As for `CC(=O)N1CCN(CCC[C@H](C(C)C)N2CC(c3cc(-c4ccc(F)cc4C(=O)N4CCOC[C@H]4C)c4c(F)nc(C)n4c3)C2)C(C)(C)C1` [Example 336], at Menin-MLL (setting [4]), the IC50 is 9 nM. In addition, the EC50 in the assay with MEIS1 gene expression [1] came out at 19 nM; in the assay with MEIS1 gene expression [2], 9.3 nM.

For `Cc1nc(F)c2c(-c3ccc(F)cc3C(=O)N3CCOC[C@H]3C)cc(C3CN([C@H](CCCN4CCN(C(=O)C(C)C)CC4)C(C)C)C3)cn12` [Example 338], the IC50 on Menin-MLL (setting [4]) is 9 nM. The EC50 with MEIS1 gene expression [1] is 27 nM; with MEIS1 gene expression [2], 1.8 nM.

For the compound `Cc1nc(F)c2c(-c3ccc(F)cc3C(=O)N3CCOC[C@H]3C)cc(C3CN([C@H](CCCN4CCN(C(=O)C5CC5)CC4)C(C)C)C3)cn12` [Example 341], the IC50 on Menin-MLL (setting [4]) was found to be 10 nM. Besides, the concentration for a half-maximal effect (EC50) was found to be 26 nM in the assay with MEIS1 gene expression [1] and 6 nM in the assay with MEIS1 gene expression [2].

For `CC(=O)N1CC2CC(C1)N2CCC[C@H](C(C)C)N1CC(c2cc(-c3ccc(F)cc3C(=O)N3CCOC[C@H]3C)c3c(F)nc(C)n3c2)C1` [Example 346], the IC50 on Menin-MLL (setting [4]) is 3.8 nM; in assay [3], 8.3 nM. The results for the EC50 in the assay on MEIS1 gene expression [1] and in the assay with MEIS1 gene expression [2] were 10 nM and 5 nM, respectively.

For orientation: IC50 means the concentration that inhibits the measured activity by half. One may read the EC50 as the concentration giving half of the maximal effect.
